Measurements reported in PubChem BioAssay (NCI).
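Grown in 96-well plates, cells were treated for 48 hours with each compound at five concentrations. Insufficient inhibition: endpoint recorded as highest concentration tested. TGI: concentration producing complete growth inhibition.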

Assays:
Assay in all cases: DTP human tumour cell line panel, 48 h
[1] = system: CAKI-1 renal
[2] = system: EKVX NSCLC
[3] = system: M14 melanoma
[4] = system: MOLT-4 leukemia
[5] = system: OVCAR-8 ovarian
[6] = system: RPMI-8226 leukemia
[7] = system: SK-MEL-2 melanoma
[8] = system: SN12C renal
[9] = system: T-47D breast
[10] = system: U251 CNS

| SMILES | TGI [1] [µM] | TGI [2] [µM] | TGI [3] [µM] | TGI [4] [µM] | TGI [5] [µM] | TGI [6] [µM] | TGI [7] [µM] | TGI [8] [µM] | TGI [9] [µM] | TGI [10] [µM] |
| --- | --- | --- | --- | --- | --- | --- | --- | --- | --- | --- |
| CC/C(Cl)=N\OC(=O)Nc1ccc(F)cc1F | 3.09 | 20.3 | 22.3 | 4.06 | 37.3 | 3.57 | 33.1 | 11.5 | 15.5 | 55.6 |
| O=c1oc2ccc(Cl)cc2cc1-c1cn2ccsc2n1 | > 100 | > 100 | > 100 | > 100 | 96.8 | > 100 | > 100 | > 100 | > 100 | > 100 |
| Cc1c2cccc-2ccc2c1[nH]c1ccccc12 | 19.3 | 3.68 | 3.7 | 28.2 | 7.07 | 8.28 | 3.39 | 7.01 | 8.45 | 3.17 |
| O=C1OI(C#Cc2ccccc2)c2ccccc21 | 6.5 | 9.67 | > 49.8 | 5.34 | 36.4 | 4.24 | 44.1 | 22.6 | 10.8 | 6.13 |
| O=S1(=O)CCN(c2ccccc2CC(c2c[nH]c3ccccc23)c2c[nH]c3ccccc23)CC1 | > 85.2 | 55.7 | 20.5 | 8.87 | 39.7 | 5.01 | 21.1 | 24.1 | > 100 | 24 |
| CC1=C2NCN(C)N=C2C(C#N)(C#N)C1(C#N)C#N | 17.9 | > 57.3 | > 66.4 | 9.87 | > 58.2 | 37.3 | > 100 | 34.9 | 59 | > 76.9 |
| O=P(O)(O)CN1CCNCCN(CP(=O)(O)O)CCNCC1 | > 100 | > 100 | > 100 | > 100 | > 83.6 | > 100 | > 100 | > 100 | > 100 | > 100 |
| CC(C)(C)c1ccc(-c2nnc(-c3cc(C#N)cc(-c4nnc(-c5ccc(C(C)(C)C)cc5)o4)c3)o2)cc1 | > 100 | > 100 | > 100 | > 100 | > 100 | > 100 | > 100 | > 100 | > 100 | > 100 |
| O=[N+]([O-])/C=C/c1cn(CCCCCn2cc(/C=C/[N+](=O)[O-])c3ccccc32)c2ccccc12 | > 53.6 | > 37.4 | 15.1 | > 20.4 | 16.5 | > 100 | 38.1 | > 21.5 | > 100 | 3.89 |
| CCN(CC)CCN(C)CCc1ccc(Br)cc1 | > 100 | > 100 | 33.1 | > 100 | > 100 | > 100 | > 100 | > 100 | > 100 | > 100 |
| CCOC(=O)/C(C#N)=C/N(CC)/N=C/c1ccccc1 | > 100 | > 100 | > 100 | > 100 | > 100 | > 100 | > 100 | > 100 | > 100 | > 100 |
